Experimental data from ChEMBL document CHEMBL1137924, “Carbonic anhydrase inhibitors. Inhibition of the beta-class enzyme from the methanoarchaeon Methanobacterium thermoautotrophicum (Cab) with anions” (Bioorg Med Chem Lett, 2004).
Values joined by “and” are separate entries in the source; they are usually repeats but may differ in a detail not shown here. Identical values can stand only once.

Columns and labels:
Carbonic anhydrase 4 = Carbonic anhydrase 4 (Homo sapiens, UniProt P22748); assay: Inhibitory constant against carbonic anhydrase IV
Carbonic anhydrase 4, sequence (P22748 whole entry): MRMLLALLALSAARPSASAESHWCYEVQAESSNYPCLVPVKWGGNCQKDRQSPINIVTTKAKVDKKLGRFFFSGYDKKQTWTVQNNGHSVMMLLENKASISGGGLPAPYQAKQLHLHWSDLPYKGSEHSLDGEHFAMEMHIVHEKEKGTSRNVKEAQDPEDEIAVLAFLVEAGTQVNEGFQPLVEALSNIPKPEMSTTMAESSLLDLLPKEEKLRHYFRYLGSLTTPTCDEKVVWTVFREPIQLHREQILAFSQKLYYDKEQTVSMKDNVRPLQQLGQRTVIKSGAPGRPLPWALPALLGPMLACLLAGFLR

Carbonic anhydrase [1] = molecular target: T1, Carbonic anhydrase (Methanosarcina thermophila, UniProt P40881); format: functional
T1 sequence (P40881 whole entry): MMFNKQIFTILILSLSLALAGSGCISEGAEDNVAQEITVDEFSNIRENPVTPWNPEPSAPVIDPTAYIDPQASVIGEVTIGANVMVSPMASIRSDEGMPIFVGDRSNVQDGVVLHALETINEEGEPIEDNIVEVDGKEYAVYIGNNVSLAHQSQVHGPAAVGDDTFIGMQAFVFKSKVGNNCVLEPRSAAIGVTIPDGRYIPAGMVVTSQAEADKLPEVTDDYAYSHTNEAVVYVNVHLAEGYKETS
Description: Inhibitory constant against Zn-Cam (Methanosarcina thermophila)

Carbonic anhydrase [2] = molecular target: T2, Carbonic anhydrase (Methanobacterium thermoautotrophicum, UniProt Q50565); set-up: species or system Methanothermobacter thermautotrophicus str. Delta H
T2 sequence (Q50565 whole entry): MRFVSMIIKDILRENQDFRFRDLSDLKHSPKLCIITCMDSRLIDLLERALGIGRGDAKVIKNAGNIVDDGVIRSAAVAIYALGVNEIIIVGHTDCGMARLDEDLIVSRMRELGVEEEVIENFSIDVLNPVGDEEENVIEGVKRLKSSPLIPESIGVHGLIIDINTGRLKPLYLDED

Carbonic anhydrase 1 = Carbonic anhydrase 1 (Homo sapiens, UniProt P00915)
Carbonic anhydrase 1, sequence (P00915 whole entry): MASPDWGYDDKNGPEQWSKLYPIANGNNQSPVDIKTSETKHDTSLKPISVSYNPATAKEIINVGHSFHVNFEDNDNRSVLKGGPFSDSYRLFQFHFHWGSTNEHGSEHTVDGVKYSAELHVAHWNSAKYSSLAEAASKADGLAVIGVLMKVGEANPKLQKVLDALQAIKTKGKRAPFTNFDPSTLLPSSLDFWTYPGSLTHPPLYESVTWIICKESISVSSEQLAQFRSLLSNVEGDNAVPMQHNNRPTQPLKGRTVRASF

Carbonic anhydrase [3] = molecular target: T2, Carbonic anhydrase; assay: Inhibitory constant against methanoarchaeon Methanobacterium thermoautotrophicum (Cab); set-up: species or system Methanothermobacter thermautotrophicus str. Delta H
Carbonic anhydrase 2 = Carbonic anhydrase 2 (Homo sapiens, UniProt P00918)

Structure (SMILES)	Ki (Carbonic anhydrase 4) [mM]	Ki (Carbonic anhydrase [1])	Ki (Carbonic anhydrase [2])	Ki (Carbonic anhydrase 1) [mM]	Ki (Carbonic anhydrase [3]) [mM]	Ki (Carbonic anhydrase 2) [mM]
O=C(O)O [BICARBONATE]	44	42 mM and 6.7 mM	44.9 mM and 9.6 mM			
Br [BROMIDE]	52	160 mM		4	42.1	
Cl [HYDROCHLORIC ACID]	36	> 200 mM		6	152	
S [HYDROGEN SULFIDE]		0.05 mM	0.7 mM	0.0006		
I [IODIDE]	11	160 mM		0.3	13.2	
O=[N+]([O-])O [NITRIC ACID]		36.5 mM	7.8 mM	7		
O=NO [NITROUS ACID]		6.8 mM	44.8 mM			
O[B-](O)(O)c1ccccc1 [OXO(PHENYL)-BORANEDIOL]		0.15 mM	0.33 mM	31.7		49.2
OB(O)c1ccccc1 [PHENYLBORONIC ACID]		0.23 mM	0.2 mM	58.6		
NS(=O)(=O)O [SULFAMATE]		9.6 mM	44 mM	0.02		
NS(N)(=O)=O [SULFAMIDE]		0.07 mM				
O=S(=O)(O)O [SULFURIC ACID]	44					
N#CS [THIOCYANIC ACID]		7 mM				
